# Source: patent publication US20090220964A1, “METHODS FOR DIAGNOSING AND TREATING CANCERS VIA MANIPULATIONS OF A...PATHWAY” (UNIVERSITY OF CINCINNATI, priority 2006, published 2009)
# How the values were obtained:
# [1] = test system: deubiquitylating enzymes, isopeptidase T and ubiquitin C-terminal hydrolase L3; test: Deubiquitylation of Rpb1 in chromatin extract by deubiquitylating enzymes; type: biochemical; conditions: second 0.5 M chromatin fraction of VHL(+) cells
# Excerpt: Rpb1 was immunoprecipitated using H14 antibody from the second 0.5 M chromatin fraction, and the immunoprecipitated Rpb1 was immunobloted with BP and anti-ubiquitin antibodies (FIG. 3D). Clearly, the Rpb1 hyperphosphorylated on Ser-5 is also hydroxylated and ubiquitylated in response to oxidative stress and this response depends on the presence of functional pVHL (FIG. 1C). To confirm ubiquitylation of the hydroxylated and hyperphosphorylated Rpb1, the extracts from the second 0.5 M chromatin fraction of VHL(+) cells were incubated with deubiquitylating enzymes, isopeptidase T and ubiquitin C-terminal hydrolase L3. This treatment results in disappearance of the high migrating forms (FIG. 3E. lane 3) which is prevented by ubiquitin aldehyde, an inhibitor of deubiquitylating enzymes (FIG. 3E, lane 4).
# HIF-1α peptide = conditions: nuclear extracts from VHL(+) cells treated with 25 μM H2O2, collected after 4 h; 17-amino acid peptide
# Protocol: (§1) The in vitro reactions of synthetic Rpb1 and HIF-1α peptides were performed using nuclear extracts from cells treated with 25 μM H2O2 and collected after 4 h.
# Rpb1 peptides = conditions: nuclear extracts from 786-0 VHL(+) cells treated with 25 μM H2O2, collected after 4 h; 37- or 24-amino acid peptides
# Protocol: as §1
# Rpb1 = conditions: 786-0 VHL(+) cells, 25 μM H2O2, 15 min, nuclease digested extracts
# Protocol: The antibody was used to investigate the role of oxidative stress in P1465 hydroxylation and pVHL-dependent ubiquitylation of Rpb1. […] The experiments were performed using RCC 786-0 cells, a well-characterized model of renal cell cancer, in which native pVHL is absent or stably reconstituted (in legend: 786-0 VHL(−) and VHL(+)). The cells were exposed briefly to a low concentration of H2O2 (25 μM, 15 min) to induce a generic oxidative stress, and assayed at the indicated time points after treatment.
# pVHL = test: Immunoblot of crude chromatin fractions after H2O2 treatment; conditions: cells expressing wild type pVHL, 25 μM H2O2, collected 4 h after treatment
# Excerpt: In our experiments, we fractionated the pool of Rpb1 engaged on DNA using nuclease digestion and different salt extractions: the nuclear pellet remaining after standard extraction of nuclei with 0.3 M salt was digested with DNAse and micrococcal nuclease, and the digest was then extracted with the indicated concentrations of NaCl (FIG. 3). […] Two other antibodies against Rpb1 were also used: H14, and N20, which is specific for the N-terminal region of Rpb1, independent of its phosphorylation state.
disappearance of high migrating (ubiquitylated) forms of Rpb1 [1],Molecule,HIF-1α peptide hydroxylation (capture of [35S]-labeled pVHL) (HIF-1α peptide),Rpb1 peptide hydroxylation (capture of [35S]-labeled pVHL) (Rpb1 peptides),hydroxylation of Rpb1 (Rpb1),enrichment of pVHL in chromatin extract fractions (pVHL)
prevented,ubiquitin aldehyde,,,,
,"OO [H2O2, hydrogen peroxide]",not affected,augmented peptide hydroxylation,induced persistent (lasting several hours) pVHL-dependent hydroxylation of Rpb1,3.5+/−1.1 fold increase
